What was measured:
[1] = Solubility limit of glycerol in vegetable rape oil methyl ester (equilibrium with excess glycerol, GC per EN 14,214); format: physicochemical; conditions: solubility limit in vegetable rape oil methyl ester phase
Excerpt: It has therefore been necessary to determine it. Experimental measurements were therefore carried out on the vegetable rape oil methyl ester/glycerol system. The solubility measurements consisted in bringing together ester and glycerol in excess so as to obtain two distinct phases and to be sure the ester phase is saturated with glycerol, in a thermostat-controlled oven, at the selected temperature, long enough for equilibrium to be reached. A sample is then taken from the ester phase and analysed by gas chromatography according to the method of determining glycerol in ester described in the EN 14,214 standard.

[2] = Soluble glycerol in the ester stream after methanol evaporation (Esterfip-H process); format: physicochemical; conditions: methyl ester stream after alcohol evaporation, ambient temperature
Excerpt: In the Esterfip-H™ process developed by IFP and using a heterogeneous catalyst, separation between the glycerol and the ester produced occurs in several stages. In fact, methanol acting as a co-solubilizing agent for the methyl esters and the glycerol, the alcohol evaporation stage carried out at the reaction section outlet makes part of the glycerol present in the stream, in a proportion ranging between 0.1 and 5% by mass, insoluble. The soluble part represents, at ambient temperature, 500 to 700 ppm mass, the allowable maximum content set by the European standard being 200 ppm mass of free glycerol. Both the insoluble glycerol and part of the soluble glycerol therefore have to be separated. Separation is first performed through gravity decantation in a decanter drum. The ester stream flowing from the decanter is then sent to a coalescer. The glycerin phase stream is withdrawn at the bottom point of the coalescer. Methods allowing these two separation stages to be improved are described in the patent applications filed by the assignee under No. FR-07/04,711 and FR-07/04,715.

[3] = cited from earlier work

Climit(glycerol) ([1]; T 20 °C): 320 ppm | Climit(glycerol) ([1]; T 43 °C): 484 ppm | Climit(glycerol) ([1]; T 61 °C): 813 ppm | Climit(glycerol) ([1]; T 80 °C): 1233 ppm | soluble part of glycerol in ester stream [2]: 500 to 700 ppm mass
SMILES: OCC(O)CO [glycerol]
solubility in alcohols ([3]; alcohols): infinitely soluble | solubility in benzene ([3]; benzene): totally insoluble | solubility in ethers ([3]; ethers): little soluble | solubility in water ([3]; water): infinitely soluble
